In article PMC7312375, “A Novel, Pan-PDE Inhibitor Exerts Anti-Fibrotic Effects in Human Lung Fibroblasts via Inhibition of TGF-β Signaling and Activation of cAMP/PKA Signaling” (International Journal of Molecular Sciences, 2020):

How the values were obtained:
[1] = tested on: MRC-5 cells; experiment: Intracellular calcium measurements (Fluo-4); format: cell-based, human; conditions: 10 µM, acute application
Description: MRC-5 cells were briefly washed with NaHEPES buffer (NaHEPES buffer was prepared as follows: NaCl 140 mM, KCl 4.7 mM, HEPES 10 mM, MgCl2 1 mM, glucose 10 mM; pH 7.3) and then loaded with 1 µM Fluo-4 AM (Thermo Fisher Scientific, Waltham, MA, USA) for 1 h, 37 °C in NaHEPES. After the incubation, the cells were washed again with fresh NaHEPES and used for experiments in a flow chamber perfused with NaHEPES-based extracellular solution supplemented with 1 mM CaCl2. All experiments were carried out at room temperature using Zeiss LSM 880 confocal microscope (40× oil objective), excitation was set to 488 nm, and the emission was between 500 and 600 nm. Each series of images was recorded at 256 × 256-pixel resolution, two consecutive frames were averaged, and the interval between the averaged images was set at 2 s. Fluorescence signals were plotted as F/F0, where F0 was baseline fluorescence defined as the averaged signal from ten consecutive baseline images.

[2] = tested on: MRC-5 cells; experiment: FBS-induced MRC-5 proliferation, alamarBlue assay; format: cell-based, human; conditions: for inhibition at 50 µM: Homo sapiens, MRC5, read-out: inhibition of FBS-induced MRC-5 proliferation rate; for MRC-5 proliferation [% of control]: Table S1 (Figure 2B), 48 h with FBS
Description: The normal human lung fibroblast cell line—MRC-5 (ATCC® CCL-171™, Manassas, VA, USA)—was used in the study. Cells were cultured in Eagle’s Minimum Essential Medium (EMEM, ATCC® 30-2003™, Manassas, VA, USA) supplemented with 10% (v/v) fetal bovine serum (FBS; Gibco, Thermo Fisher Scientific, Waltham, MA, USA) and antibiotics mixture (penicillin, streptomycin, amphotericin B; Gibco, Thermo Fisher Scientific, Waltham, MA, USA) (standard culture medium) in standard culture conditions (5% CO2, 37 °C, 95% humidity). Unless otherwise specified, for the experiments, cells were seeded at a final density (5 × 10^3/cm^2) in standard culture medium for 24 h and then cultured in EMEM at reduced serum content (0.5%; v/v) for additional 24 h. TGF-β1 (BD Biosciences, San Jose, CA, USA) was administered at 5 ng/mL concentration in all experiments.
MRC-5 cell viability was evaluated using CytoTox-ONE™ Homogeneous Membrane Integrity Assay (Promega Corporation, Madison, WI, USA) according to the manufacturer’s protocol. The average fluorescence intensity with an excitation wavelength of 560 nm and an emission wavelength of 590 nm was measured using a microplate reader (SpectraMax® iD3, Molecular Devices, San Jose, CA, USA). Experiments were run three times in duplicates. MRC-5 proliferation was determined using the alamarBlue® assay. Cells were seeded for 24 h in standard culture medium, then serum-starved for an additional three days. Evaluated compounds (1-50 µM) were added 1 h prior FBS (10%, v/v) for an additional 48 h. After incubation, the alamarBlue® reagent (Invitrogen, Life Technologies, Carlsbad, CA, USA), dissolved in Hank’s Balanced Salt Solution (10% v/v; Gibco, Thermo Fisher Scientific, Waltham, MA, USA), was added for 30 min. After the observed color change, the supernatant was transferred to 96-well plates, and the absorbance was measured at 570 and 600 nm. The percent difference in reduction between treated and control cells was calculated according to the manufacturer’s protocol. The experiments were run three times in duplicates.

[3] = tested on: TGF-β1-induced MRC-5 cells; experiment: Western blot of p-Smad-2; format: cell-based, human; conditions: 10 µM, 1 h pre-incubation, TGF-β1 5 ng/mL 1 h
Description: Western Blot analysis was performed according to a standard protocol. Briefly, MRC-5 cells were pre-incubated with the study compounds (10 µM) for 1 h, […] (RIPA Lysis and Extraction Buffer, Thermo Fisher Scientific, Waltham, MA, USA) and supplemented with protease inhibitor cocktail and phosphatase inhibitor cocktail (both from Sigma Aldrich, St. Louis, MO, USA). Equal amounts of protein (30 µg) were separated using 10% SDS-polyacrylamide gels and transferred onto polyvinylidene difluoride (PVDF) membranes (Thermo Fisher Scientific, Waltham, MA, USA). Then membranes were washed with Tris Buffered Saline with Tween 20 (TBST) buffer (150 mM NaCl, 50 mM Tris, 0.05% Tween 20), blocked with 5% skim milk in TBST and incubated overnight with the appropriate primary antibody: rabbit, polyclonal anti-SMAD2 antibody, dilution 1:250, #51-1300 and rabbit, polyclonal anti-phospho-SMAD2 (Ser465, Ser467) antibody, dilution 1:500, #44-244G (both from Thermo Fisher Scientific, Waltham, MA, USA); rabbit, polyclonal anti-CREB1 antibody, dilution 1:500, #orb213777 and rabbit, polyclonal anti-phospho-CREB1 (Ser133) antibody, dilution 1:500, #orb213775 (both from Biorbyt LLC, San Francisco, CA, USA); mouse monoclonal anti-GAPDH antibody, dilution 1:5000, #G8795 (Sigma Aldrich, St. Louis, MO, USA). The next day, after gentle rising, membranes were exposed to secondary, rabbit anti-mouse IgG (whole molecule) peroxidase antibody (#A9044, dilution 1:3000, Sigma Aldrich, St. Louis, MO, USA) and goat anti-rabbit IgG (H+L) peroxidase-conjugated antibody (#32460, dilution 1:3000, Thermo Fisher Scientific, Waltham, MA, USA). Blots were visualized using a chemiluminescence method (Clarity Max™ Western ECL Substrate—Peroxide Solution, BioRad, Hercules, CA, USA) with a C-DiGit® Blot Scanner (LI-COR Biosciences, Lincoln, NE, USA). ROD was measured according to the NIH guidelines with Fiji ImageJ Software. The experiments were run four times.

[4] = tested on: TGF-β1-induced MRC-5 cells; experiment: Protein kinase A activity; format: cell-based, human; conditions: 10 µM 30 min, then TGF-β1 30 min
Description: Protein Kinase A (PKA) activity in MRC-5 cells was determined using a PKA Colorimetric Activity Kit (Invitrogen, Carlsbad, CA, USA) according to the manufacturer’s protocol. MRC-5 cells were seeded in standard culture medium, and after 48 h they were serum-starved for 2 h in HBSS, followed by the addition of study compounds (10 µM) and incubation for 30 min. Finally, TGF-β1 was administered, and the samples were incubated for an additional 30 min. Whole cell lysates were used in the assay. The amount of PKA was normalized to the total protein content in each sample. The experiments were run two times in duplicates.

[5] = tested on: TGF-β1-induced MRC-5 cells; experiment: Immunofluorescence, nuclear localization of p-CREB; format: cell-based, human; conditions: 10 µM
Description: (§1) For immunocytochemical labeling, MRC-5 cells were seeded on glass coverslips. Study compounds (10 µM) were added 1 h before TGF-β1 treatment, and analysis was performed after 1 h (p-Smad-2 and p-CREB detection) or 48 h (α-SMA detection) of incubation. Cells were fixed in methanol or 4% formaldehyde solution, permeabilized in 0.2% or 0.1% Triton X-100 solution (for p-Smad-2 and p-CREB or α-SMA, respectively). After incubation in blocking solution the following primary antibodies: rabbit polyclonal, anti-phospho-Smad-2 (Ser465, Ser467) antibody (#44-244G, Thermo Fisher Scientific, Waltham, MA, USA); rabbit polyclonal, anti-phospho-CREB1 (Ser133) antibody (#orb213775, Biorbyt, Cambridge, United Kingdom); mouse monoclonal, anti-α-SMA antibody (#MA5-11547, Thermo Fisher Scientific, Waltham, MA, USA) and secondary antibodies: goat anti-rabbit Alexa Fluor 546 conjugated antibody and goat anti-mouse Alexa Fluor 488 conjugated antibody (#A-11010 and #A-11001, respectively, Invitrogen, Carlsbad, CA, USA) were used. Nuclei were counterstained with Hoechst 33342 dye (Thermo Fisher Scientific, Waltham, MA, USA). Slides were mounted in ProLong™ Glass Antifade Mountant (Invitrogen, Carlsbad, CA, USA) and analyzed using Leica DMiL LED Fluo microscope (for α-SMA and p-CREB visualization, 40× objective) or Leica DMi8 with Thunder Imaging System (for p-Smad-2 visualization, 40× objective), all equipped with LAS-X Software (Leica Microsystems GmbH, Wetzlar, Germany). Experiments were run four times using five randomly selected fields of view, at the same fluorescent time exposure and in a blind-folded manner.

[6] = tested on: TGF-β1-induced MRC-5 cells; experiment: Immunofluorescence count of α-SMA positive myofibroblasts; format: cell-based, human; conditions: 10 µM, 48 h TGF-β1 5 ng/mL
Description: as §1

[7] = molecular target: T1, TRPA1 (Homo sapiens, UniProt O75762); experiment: TRPA1 antagonist FLIPR assay (functional, HEK293 cell-based)
T1 construct: host or cells: HEK293
T1 sequence (O75762 whole entry, species assumed): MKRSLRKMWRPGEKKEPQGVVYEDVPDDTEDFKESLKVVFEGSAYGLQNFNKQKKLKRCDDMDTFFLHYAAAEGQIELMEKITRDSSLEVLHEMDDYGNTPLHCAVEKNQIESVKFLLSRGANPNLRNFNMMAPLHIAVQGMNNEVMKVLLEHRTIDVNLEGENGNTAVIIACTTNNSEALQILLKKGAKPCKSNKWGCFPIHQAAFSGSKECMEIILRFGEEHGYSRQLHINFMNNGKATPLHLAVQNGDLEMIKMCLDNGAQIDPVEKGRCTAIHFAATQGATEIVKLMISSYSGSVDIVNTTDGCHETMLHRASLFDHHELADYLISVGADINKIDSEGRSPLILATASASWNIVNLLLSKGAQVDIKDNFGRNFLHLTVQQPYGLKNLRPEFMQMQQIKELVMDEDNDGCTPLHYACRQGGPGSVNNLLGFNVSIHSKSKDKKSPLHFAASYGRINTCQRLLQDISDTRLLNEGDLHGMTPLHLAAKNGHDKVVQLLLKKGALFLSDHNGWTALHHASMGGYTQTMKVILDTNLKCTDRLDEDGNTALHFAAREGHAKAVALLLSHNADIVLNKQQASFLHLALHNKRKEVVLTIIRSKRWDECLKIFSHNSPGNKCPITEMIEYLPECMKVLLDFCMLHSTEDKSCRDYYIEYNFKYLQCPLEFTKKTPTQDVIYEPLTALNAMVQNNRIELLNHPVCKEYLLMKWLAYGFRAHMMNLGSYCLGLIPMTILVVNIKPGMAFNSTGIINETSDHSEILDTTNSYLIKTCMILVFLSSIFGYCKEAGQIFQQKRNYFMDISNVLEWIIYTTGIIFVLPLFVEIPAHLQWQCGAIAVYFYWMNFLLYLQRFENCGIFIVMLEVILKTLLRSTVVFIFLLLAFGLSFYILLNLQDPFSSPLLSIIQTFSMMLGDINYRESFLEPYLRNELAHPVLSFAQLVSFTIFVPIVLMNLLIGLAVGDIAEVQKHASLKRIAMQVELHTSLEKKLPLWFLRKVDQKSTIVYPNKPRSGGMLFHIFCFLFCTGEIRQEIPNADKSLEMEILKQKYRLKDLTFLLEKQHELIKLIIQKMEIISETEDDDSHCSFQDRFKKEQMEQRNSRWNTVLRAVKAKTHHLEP
Description: The TRPA1 agonist and antagonist fluorescent imaging plate reader (FLIPR) Assay (functional, HEK293 cell-based) was performed at Eurofins Panlabs, Inc. (St. Charles, MO, USA). The compounds were prepared in assay buffer to the final dilutions 10 and 50 µM. In each experiment, the respective reference compounds were tested: allyl isothiocyanate (the agonist assay) and ruthenium red (the antagonist assay). The […] assays were conducted on a FLIPR^TETRA instrument where the test compounds, vehicle controls, and reference agonists or antagonists were added to the assay plate after a fluorescence baseline was established. The agonist or antagonist incubation during the assay was for a total of 180 s and was used to assess each compound’s ability to activate or inactivate TRPA1. All plates were subjected to appropriate baseline corrections. Once baseline corrections were processed, maximum fluorescence values were exported, and data was manipulated to calculate percentage activation or percentage inhibition. Results showing activity greater than 25% were considered to represent significant effects of test compounds. Experiments were run three times, […].

| TRPA1 Inhibition (% of control) ([7]; 10 µM) | TRPA1 Inhibition (% of control) ([7]; 50 µM) | Structure (SMILES) | increase in average Ca2+ response area over baseline [1] [fold] | inhibition at 50 µM ([2]; 50 µM) [%] | MRC-5 proliferation [% of control] ([2]; 1 µM) | MRC-5 proliferation [% of control] ([2]; 5 µM) | MRC-5 proliferation [% of control] ([2]; 10 µM) | MRC-5 proliferation [% of control] ([2]; 15 µM) | MRC-5 proliferation [% of control] ([2]; 20 µM) | MRC-5 proliferation [% of control] ([2]; 50 µM) | TGF-β1-induced Smad-2 phosphorylation (immunoblot) [3] | Protein kinase A activity in TGF-β1-induced fibroblasts [4] | elevation of fraction of MRC-5 cells with nuclear p-CREB localization [5] | number of myofibroblasts (MRC-5 with α-SMA-positive stress fibers); fibroblast to myofibroblast transition [6] |
| --- | --- | --- | --- | --- | --- | --- | --- | --- | --- | --- | --- | --- | --- | --- |
|  |  | CC(C)CN1C(=O)/C(=C/C(=O)O)c2cccc(F)c21 [ASP 7663, (E)-2-(7-fluoro-1-isobutyl-2-oxoindolin-3-ylidene)acetic acid, reference compound] | 10 | 14 | 99 % of control | 97 % of control | 96 % of control | 92 % of control | 89 % of control | 86 % of control |  |  |  |  |
| 91.8 % of control | 98.8 % of control | CC(C)c1ccc(NC(=O)Cn2cnc3c2c(=O)n(C)c(=O)n3C)cc1 [HC-030031, 2-(1,3-dimethyl-2,6-dioxo-1,2,3,6-tetrahydro-7H-purin-7-yl)-N-(4-isopropylphenyl)acetamide, reference compound] |  | 15 | 98 % of control | 96 % of control | 95 % of control | 90 % of control | 90 % of control | 85 % of control | no differences | no significant change | only a slight increase | did not show any significant effect |
